# According to patent US8350007B2, “Crystal structure of human mitoNEET protein” (The Regents of the University of California, priority 2007, dated 2013):
# Tests used:
# serum albumin = serum albumin (Homo sapiens, UniProt P02768); conditions: after patient ingestion, prior to cellular uptake; cited from earlier work
# [1] = Blood glucose levels in diabetic ZDF rats treated with rosiglitazone; format: in vivo, rat; conditions: after three weeks of rosiglitazone 10 mg/kg by gavage
# Procedure: Sixteen male ZDF rats were housed in filter cages, 2 or 3 animals per cage. Weight and blood glucose levels were measured every week. The blood glucose was measured at the fed state (07:30 am) and after 6 hours fast (1:[…]). The Animals were divided into two groups: a control group, and a rosiglitazone-treated group. Animals were treated daily for 3 weeks once a day, 5 times a week, with rosiglitazone, 10 mg/kg by gavage (0.7 ml) for the rosi-treated rats; or 0.7 ml saline for the control rats. After three weeks, liver, muscle and epididymal fat were collected and immediately frozen.
# The average glucose blood level after fed of the control group was >240 mg/dl; in the rosiglitazone-treated rats some responded in a medium manner to the treatment; after three weeks of rosiglitazone treatment their glucose blood levels after fed was ˜120-140 mg/dl and some rats responded very well to rosiglitazone treatment and after three weeks their glucose blood levels after fed was ˜80 mg/dl.
# Sequence of serum albumin (P02768 25-609): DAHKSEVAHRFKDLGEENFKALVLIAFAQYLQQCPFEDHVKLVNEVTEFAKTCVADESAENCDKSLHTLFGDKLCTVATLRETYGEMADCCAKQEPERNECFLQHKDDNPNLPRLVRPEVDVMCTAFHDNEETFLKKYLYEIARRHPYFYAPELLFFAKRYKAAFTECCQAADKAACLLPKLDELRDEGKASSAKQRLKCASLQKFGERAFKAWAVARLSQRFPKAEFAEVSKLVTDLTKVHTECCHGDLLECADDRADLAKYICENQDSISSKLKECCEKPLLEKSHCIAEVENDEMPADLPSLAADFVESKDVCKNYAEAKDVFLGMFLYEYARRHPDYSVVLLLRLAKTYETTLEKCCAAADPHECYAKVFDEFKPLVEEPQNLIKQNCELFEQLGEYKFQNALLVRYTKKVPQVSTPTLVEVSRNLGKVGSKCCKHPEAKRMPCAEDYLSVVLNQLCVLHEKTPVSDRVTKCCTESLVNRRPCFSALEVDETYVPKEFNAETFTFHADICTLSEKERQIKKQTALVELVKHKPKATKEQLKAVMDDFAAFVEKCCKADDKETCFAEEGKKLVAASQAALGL
Structure (SMILES),binding to serum albumin (serum albumin),glucose blood levels after fed ([1]; ZDF rats responding in a medium manner) [mg/dL],glucose blood levels after fed ([1]; ZDF rats responding very well) [mg/dL]
CCc1ccc(CCOc2ccc(CC3SC(=O)NC3=O)cc2)nc1 (stereo not drawn) [pioglitazone],largely bound to serum albumin,,
CN(CCOc1ccc(CC2SC(=O)NC2=O)cc1)c1ccccn1 (stereo not drawn) [rosiglitazone],,120 to 140,~80
